The source of these data is PMC5896380, “Selective imaging of cathepsin L in breast cancer by fluorescent activity-based probes” (Chemical Science, 2018).

In assay [1] the test system is cathepsins L and B in MDA-MB-231 cells. Description: Cathepsin labeling in MDA-MB-231 cells by SDS-PAGE and western blotting. The format is cell-based, human. The procedure: Low passage MDA-MB-231 cells were seeded on 12-well plates (200 000 cells per well per 1 mL of medium) and cultured in Dulbecco’s Modification of Eagle’s Medium (DMEM) supplemented with 10% fetal bovine serum, 2 mM of L-glutamine, 100 units per mL penicillin and 100 μg mL^–1 streptomycin. […] To control for non-specific binding, the cells were preincubated with E64d (25 μM) for 2 hours prior to probe addition. At various time points, the medium was aspirated and the cells were gently washed twice with 1 mL of Dulbecco’s Phosphate-Buffered Saline (DPBS) and then trypsinized, harvested and centrifuged for 10 min (500 × g). The supernatants were removed by aspiration and the pellets washed with 1 mL of DPBS and centrifuged (5 min, 500 × g). The supernatants were again removed and the pellets solubilized in 100 μL 1× SDS/DTT and then boiled for 5 min. Each sample was then cooled to room temperature and sonicated (Branson Sonifier 250, duty cycle: 50, output control: 5, cycles: 5) and then 30 μL was loaded on 4–12% Bis-Tris Plus gels and run for 30 min at 200 V with a SDS-PAGE Standards/Broad Range ladder. Proteins were transferred to a 0.2 μm nitrocellulose membrane for 1 hour at 10 V and then Ponceau staining was used to verify equal loading. Membranes were blocked with 2.5% BSA in Tris-buffered saline/0.1% v/v Tween 20 (TBS-T) for 1 hour at room temperature. Cathepsins L and B were detected by primary goat anti-hCathepsin L (R&D, AF952, 0.2 mg mL^–1, 1 : 2000) and goat anti-hCathepsin B (R&D, AF953, 0.2 mg mL^–1, 1 : 1000) antibodies, respectively, followed by incubation with a secondary antibody (IRDye® 800CW, LI-COR, donkey anti-goat, 1 : 10 000). The membranes were incubated with primary antibodies for 2 hours, and with (fluorescent) secondary antibodies for 30 min (both in TBS-T at room temperature). The fluorescence was read at 700 nm (Cyanine5; excitation 685 nm) and 800 nm (secondary antibody; excitation 785 nm) using an Odyssey fluorescence imaging system (LI-COR). The images were analyzed using Image Studio software.
On the technique in general: In western blotting, separated proteins are transferred to a membrane and probed.

The target in assay [2] is T1, cathepsin K (Homo sapiens, UniProt P43235).
T1 construct: made in house
T1 sequence (P43235 115-329): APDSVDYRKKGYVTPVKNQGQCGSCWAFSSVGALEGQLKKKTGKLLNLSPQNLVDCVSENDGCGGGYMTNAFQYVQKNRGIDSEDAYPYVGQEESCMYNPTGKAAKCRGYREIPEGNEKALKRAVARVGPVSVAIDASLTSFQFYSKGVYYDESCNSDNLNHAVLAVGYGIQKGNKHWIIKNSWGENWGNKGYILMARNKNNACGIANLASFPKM
Description: kobs/I of activity-based probes, cathepsin K. Type of assay: biochemical. The following applies: Fig. 6A; pseudo-first order, probe at least 5-fold excess over cathepsin, 100 μM ACC substrate; pH 5.5, 37 °C; triplicate, SD below 20%. The procedure: (§1) All kinetic experiments were performed using fMax (Molecular Devices) and CLARIOStar (BMG LABTECH) spectrofluorimeters operating in kinetic mode using 96-well plates. ACC-labeled substrates were screened using 355 nm and 460 nm wavelengths (excitation and emission, respectively). […] The buffer was prepared at room temperature and the enzyme kinetic studies were performed at 37 °C.
(§2) For the kinetic studies, five recombinant human cathepsins (B, L, V, K and S) were expressed and purified and active site titrated using an E64 inhibitor. The kobs/I parameter was measured under pseudo-first order kinetic conditions, as described.[40] The cathepsin of interest was mixed with various concentrations of probe (at least 5-fold excess over cathepsin) and 100 μM ACC-fluorescence substrate. The experiments were repeated at least three times, and the results are presented as an average. The SDs were below 20%.

The target in assay [3] is T2, cathepsin S (Homo sapiens, UniProt P25774).
T2 construct: made in house
The assay can be described thus: kobs/I of activity-based probes, cathepsin S. Type of assay: biochemical. The settings on record: Fig. 6A; pseudo-first order, probe at least 5-fold excess over cathepsin, 100 μM ACC substrate; pH 5.5, 37 °C; triplicate, SD below 20%. The procedure: as §1, §2

Assay [4] concerns the target T3, cathepsin B (Homo sapiens, UniProt P07858).
T3 construct: made in house
The assay can be described thus: kobs/I of activity-based probes, cathepsin B. Type of assay: biochemical. The settings on record: Fig. 6A; pseudo-first order, probe at least 5-fold excess over cathepsin, 100 μM ACC substrate; pH 5.5, 37 °C; triplicate, SD below 20%. The procedure: as §1, §2

The target of assay [5] is T4, cathepsin L (Homo sapiens, UniProt P07711).
T4 construct: made in house
Description: kobs/I of activity-based probes, cathepsin L. The format is biochemical. The following applies: Fig. 6A; pseudo-first order, probe at least 5-fold excess over cathepsin, 100 μM ACC substrate; pH 5.5, 37 °C; triplicate, SD below 20%. The procedure:
as §1, §2

For assay [6], the target named is T5, cathepsin V (Homo sapiens, UniProt O60911).
T5 construct: made in house
Description: kobs/I of activity-based probes, cathepsin V. The format is biochemical. The following applies: Fig. 6A; pseudo-first order, probe at least 5-fold excess over cathepsin, 100 μM ACC substrate; pH 5.5, 37 °C; triplicate, SD below 20%. Here is the method: as §1, §2

The subject of assay [7] is cathepsins L, V, B, S and K. Description: Labeling of recombinant cathepsins by Cy5 probes, SDS-PAGE. The following applies: cathepsins 10 nM or 100 nM, probe/enzyme ratio 0.2, 1, 5 and 25, 30 min, Cy5 scan. The format is biochemical, human. Here is the method: In experiment A, the probe concentrations were 2 nM, 10 nM, 50 nM and 250 nM, while in experiment B the probe concentrations were 20 nM, 100 nM, 500 nM and 2.5 μM. The reaction volume for all the samples was 200 μL. After 30 min, 100 μL of 3× SDS/DTT was added to the reaction mixtures, the samples were boiled for 5 min, and then 20 μL of the sample was run on 4–12% Bis-Tris Plus 15-well gels for 30 min at 200 V with 2 μL of PageRuler™ Prestained Protein Ladder. The gels were then directly scanned at 700 nm (red channel for Cy5 detection; excitation 685 nm) using an Odyssey fluorescence imaging system (LI-COR) and the images were analyzed using Image Studio software.

The subject of assay [8] is cathepsins L and B in HEK293T cells. The assay can be described thus: Cathepsin labeling by Cy5 probes in HEK293T cells, immunoblotting. The settings on record: 1 μM probe, 0–18 hours. Type of assay: cell-based, human. The procedure: Figure S3 Cathepsins labeling by two Cy5-tagged probes in HEK293T cells. Panel A. Cells (100,000/well/mL) were incubated with MP-cL3 (1µM) probe for 0-18 hours. Next, cells were harvested and subjected for Western blotting. MP-cL3 probe is very selective toward cathepsin L even after 18 hours of incubation (only residual cathepsin B activity is detected).
MDA-MB-231, thus mostly heavy chain of cathepsin L is labeled. Panel B and Panel C. Cells (100,000/well/mL) were incubated with pan-specific MP-pc1 (1µ M) probe for 0-18 hours. Next, cells were harvested and subjected […]
(1 picture or pasted object on this page, not shown here)

The subject of assay [9] is HEK293T cathepsin L-transfected cells. The following applies: probes 0–10 μM incubated with cells up to 24 hours; streptavidin–HRP blot. The procedure: To evaluate probe uptake, 250 000 HEK293T cells transfected with pcDNA3:ppCatL were seeded into 6-well plates and incubated with various concentrations of bMP-cL1 and bMP-cL2 (0–10 μM) for up to 24 hours. In control experiments the cells were preincubated with 25 μM E-64d, a pan-cathepsin inhibitor, for 2 hours prior to probe addition. After incubation samples were collected and immunoblotted. Biotinylated proteins were detected as described above.

The subject of assay [10] is HEK293T cells overexpressing cathepsin L. The settings on record: probes 5 μM, 18 hours; streptavidin magnetic beads; immunoblotting.
Description: To evaluate MP-cL1 and MP-cL2 selectivity, 250 000 HEK293T cells overexpressing cathepsin L were plated and treated with probes and inhibitors as described above. Streptavidin-bound magnetic beads were prepared in separate tubes according to the manufacturer’s guidelines (Pierce™ Streptavidin Magnetic Beads, Thermo Scientific). Briefly, 50 μL beads were washed with sample lysis buffer and then the lysates were added. Tubes were incubated at room temperature on a rocking platform for 2 hours. The beads were then extensively washed with 50 mM Tris-buffered saline containing 0.1% Tween-20 and collected between each washing step. The beads were then re-suspended in 1× SDS loading buffer at a final volume of 100 μL, and the samples were placed at 95 °C and prepared for immunoblotting as described above to detect biotinylated proteins in the lysates, as well as in the unbound and eluted fractions. To confirm cathepsin L/B selectivity, we seeded HEK293T cells as described above. The probes were added at a 5 μM final concentration and incubated for 18 hours before the cells were harvested and lysed to isolate biotinylated proteins using streptavidin magnetic beads, as described above. The lysates plus the unbound and eluting fractions were then evaluated to detect cathepsin B (in-house mouse polyclonal Ab;[51] dilution 1 : 1000) and cathepsin L (Abcam ab62710).

T2 sequence (P25774 115-331): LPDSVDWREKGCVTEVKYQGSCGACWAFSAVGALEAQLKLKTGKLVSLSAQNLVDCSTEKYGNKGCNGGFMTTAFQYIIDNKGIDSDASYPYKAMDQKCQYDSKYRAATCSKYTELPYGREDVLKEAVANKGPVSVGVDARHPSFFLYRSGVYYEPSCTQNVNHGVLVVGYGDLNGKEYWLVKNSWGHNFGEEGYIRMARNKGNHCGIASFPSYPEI
T4 sequence (P07711 114-333): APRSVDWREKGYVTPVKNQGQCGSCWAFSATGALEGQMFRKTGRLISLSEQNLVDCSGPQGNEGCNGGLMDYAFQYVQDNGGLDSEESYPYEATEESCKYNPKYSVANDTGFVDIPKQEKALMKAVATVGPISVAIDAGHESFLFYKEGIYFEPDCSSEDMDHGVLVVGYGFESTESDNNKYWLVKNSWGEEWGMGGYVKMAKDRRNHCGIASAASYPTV
T5 sequence (O60911 114-334): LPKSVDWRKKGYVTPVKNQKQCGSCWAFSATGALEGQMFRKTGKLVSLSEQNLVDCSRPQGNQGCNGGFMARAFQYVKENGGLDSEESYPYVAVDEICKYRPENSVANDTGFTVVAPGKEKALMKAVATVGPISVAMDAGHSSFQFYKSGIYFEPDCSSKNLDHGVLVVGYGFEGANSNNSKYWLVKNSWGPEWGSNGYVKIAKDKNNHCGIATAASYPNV

On to `CCOC(=O)[C@H]1O[C@@H]1C(=O)N[C@@H](CC(C)C)C(=O)NCCC(C)C` [E64d, reference compound], for which the “effect of pre-incubation on cathepsin labeling by probe” value in [1] (25 μM, 2 hours prior to probe addition, MDA-MB-231 cells) is listed as “blocked all cysteine cathepsin activity”.
As for “BODIPYFL-6-ahx-Ala-Arg-Leu-Arg-AOMK [MP-pc2, BDPFL-6-ahx-Ala-Arg-Leu-Arg-AOMK, BODIPY-FL-labeled pan-cathepsin probe]”, the “kobs/I Cath-K” value in assay [2] turned out to be 350 M⁻¹ s⁻¹. In addition, the “kobs/I Cath-S” value in assay [3] is listed as 18,500 M^-1s^-1. Moreover, the “kobs/I Cath-B” value in [4] is on record as 23,200 M^-1s^-1. In addition, the “kobs/I Cath-L” value in assay [5] is recorded as 8,200 M^-1s^-1. Besides, the “kobs/I Cath-V” value in [6] is reported as 9,800 M^-1s^-1.
In the same order, the values of “Cy3-6-ahx-Ala-Arg-Leu-Arg-AOMK [MP-pc3, Cy3-labeled pan-cathepsin probe]” are 1,350 M^-1s^-1, 69,000 M^-1s^-1, 75,400 M^-1s^-1, 16,900 M^-1s^-1 and 6,700 M^-1s^-1.
As for “Cy5-Ala-Arg-Leu-Arg-AOMK [MP-pc1, Cy5-labeled broad spectrum (pan-specific) cathepsin probe]”, the “cathepsins labeled in MDA-MB-231 cells” value in assay [1] (1 μM probe, 0–18 hours, antibody overlay) is “bound mostly to cathepsin B”. For the same compound, the “labeling of recombinant cathepsins L, V, B, S and K” value in [7] is “can label cathepsins L, V, B and S (10 nM) even at a 1 : 1 ratio”. For the same compound, in [2], the “kobs/I Cath-K” value is listed as 30,150 M^-1s^-1. In addition, the “kobs/I Cath-S” value in [3] is 202,500 M^-1s^-1. Besides, the “kobs/I Cath-B” value in assay [4] is recorded as 265,000 M^-1s^-1. Also, the “kobs/I Cath-L” value in assay [5] is 47,500 M^-1s^-1. Further, the “kobs/I Cath-V” value in [6] is on record as 53,200 M^-1s^-1. Moreover, the “cathepsins labeled in HEK293T cells” value in [8] is “labeled both cathepsins L (25 kDa and 30 kDa) and B (30 kDa)”.
“biotin-6-ahx-His-DThr-Phe(F5)-Arg-AOMK [MP-cL1] [listing 1 of 2 here]”: the “kobs/I Cath-K” value in assay [2] was less than 100 M⁻¹ s⁻¹. In addition, the “kobs/I Cath-S” value in assay [3] is less than 100 M⁻¹ s⁻¹. In [4], the “kobs/I Cath-B” value is 1,900 M^-1s^-1. Also, in [5], the “kobs/I Cath-L” value is recorded as 26,600 M^-1s^-1. In assay [6], the “kobs/I Cath-V” value worked out at 780 M⁻¹ s⁻¹.
In the case of “biotin-6-ahx-His-DThr-Phe(F5)-Arg-AOMK [MP-cL1] [listing 2 of 2 here]”, the “lowest probe concentration giving a signal in the cathepsin MW range” value in [9] was determined as 100 nM. In addition, the “cross-reactivity with cathepsin B in pulldown eluting fractions” value in [10] is given as “only minor cross-reactivity”.
In the case of “biotin-6-ahx-His-DThr-Phe(F5)-Lys-AOMK [MP-cL2] [listing 1 of 2 here]”, the “kobs/I Cath-K” value in assay [2] was less than 100 M⁻¹ s⁻¹. Besides, the “kobs/I Cath-S” value in assay [3] is less than 100 M⁻¹ s⁻¹. Besides, the “kobs/I Cath-B” value in [4] is recorded as 1,250 M^-1s^-1. In addition, the “kobs/I Cath-L” value in assay [5] was 10,500 M^-1s^-1. Moreover, the “kobs/I Cath-V” value in assay [6] stood at 360 M⁻¹ s⁻¹.
“biotin-6-ahx-His-DThr-Phe(F5)-Lys-AOMK [MP-cL2] [listing 2 of 2 here]”: the “lowest probe concentration giving a signal in the cathepsin MW range” value in assay [9] turned out to be 100 nM. For the same compound, the “cross-reactivity with cathepsin B in pulldown eluting fractions” value in [10] is “only minor cross-reactivity”.
